Measurements published in article PMC9767854, “Discovery and mechanism studies of a novel ATG4B inhibitor Ebselen by drug repurposing and its anti-colorectal cancer effects in mice” (Cell & Bioscience, 2022).

Key:
[1] = biological target: T1, ATG4B (Homo sapiens, UniProt Q9Y4P1); assay: ATG4B oligomerization by non-reducing electrophoresis; type: biochemical; settings: ATG4B 5 μM; Ebselen 5, 25, 50 μM or FMK-9a 50 μM; 0.5, 1, 3 h
T1 construct: 6xHis; made in house; host or cells: E. coli BL21(DE3)
T1 sequence (Q9Y4P1 1-393): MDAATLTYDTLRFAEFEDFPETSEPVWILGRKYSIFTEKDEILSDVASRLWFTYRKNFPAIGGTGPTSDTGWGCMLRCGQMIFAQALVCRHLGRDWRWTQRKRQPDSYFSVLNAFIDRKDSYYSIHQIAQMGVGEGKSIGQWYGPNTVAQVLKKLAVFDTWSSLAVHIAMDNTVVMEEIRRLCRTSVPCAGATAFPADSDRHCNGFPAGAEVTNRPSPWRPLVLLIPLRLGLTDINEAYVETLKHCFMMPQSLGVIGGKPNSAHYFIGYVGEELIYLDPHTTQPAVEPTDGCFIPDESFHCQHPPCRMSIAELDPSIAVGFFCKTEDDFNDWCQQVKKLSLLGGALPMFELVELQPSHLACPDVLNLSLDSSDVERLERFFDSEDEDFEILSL
Excerpt: The aggregates formed could be reversibly regulated by a reducing agent, because an assay to add dithiothreitol (DTT) into the reaction was operated. […] Furthermore, we also evaluated the redox properties of analogues on ATG4B.

[2] = tested on: xenografted tumors; assay: Autophagy, apoptosis and Ki67 markers in xenografted tumors; type: in vivo, BALB/c-nu/nu mice
Experimental: Fig. 7 Ebselen suppresses colorectal cancer tumor growth. A A brief diagram of the animal experiment for subcutaneous xenografted tumor model. 2 × 10^6 (2e^6) SW620 cells were xenografted into BALB/c-nu/nu mice by subcutaneous injection (s.c.). After 10 days, mice were injected intraperitoneally (i.p.) with indicated doses of Ebselen every two days, and monitoring of tumor volume and body weight changes were performed. B–D Representative tumor images and tumor weight at the end time point were captured from SW620 cell-based xenografts. Mean tumor weight ± SEM (C) and mean tumor volume ± SEM (D) were shown. E The inhibitory effect of ATG4 in xenografted tumors was detected by FRET assay. F, I The protein level of autophagy and apoptosis in xenografted tumors were detected by western blot. Representative results were shown and the statistical results of each group were obtained from seven mice. J, K The immunohistochemistry analysis of Ki67 in xenografted tumors (group vehicle and Ebselen 10 mg/kg). Bar = 20 μm. The positive Ki67 area rate was obtained from the ratio of positive Ki67 area to total cell area by Image J
(§1) Four- to six-weeks-old BALB/C nu/nu female mice purchased from the Experimental Animal Center of Sun Yat-Sen University, were approved by the Animal Ethics Committee at Sun Yat-sen University and kept in specific-pathogen-free environment. Approximately 2 × 10^6 SW620 cells or 1 × 10^7 HCT116 cells were injected subcutaneously into the dorsal flank on the right side of the mice. Different groups were divided randomly when the tumor volume was approximately 60–80 mm^3, before drug administration intraperitoneally (i.p.). Tumor volume was measured by calipers and calculated using the equation: 0.5 × length × width^2. At the end of the experiments, the mice were sacrificed and tumors were dissected and weighed. In particular, we employed Servicebio (Wuhan, China) to carry out H&E staining and immunohistochemistry assay.

[3] = tested on: ATG4B KO HCT116; assay: Cell viability by CCK-8 assay, ATG4B KO HCT116; type: cell-based
Experimental: WT/ATG4B KO HCT116, WT/ATG4B KO SW620 and WT/ATG4B KO RKO cells were seeded in 96-well plate at 1000–1500 cells per well for cell viability assay, and seed in 6-well plate at 1 × 10^5 cells per well for cell number counting. After 12 h, the indicated drugs were added to the medium and cultured for another 96 h. Total viable cell numbers were counted by a cell counter (BioRAD), and cell viability was determined by cell-count-8 assay kit (CCK-8, Bimake, B34304) according to the manufacturer’s protocol.

[4] = tested on: HCT116 based xenograft; assay: HCT116 subcutaneous xenograft tumor model; type: in vivo, BALB/c-nu/nu mice; settings: i.p., compared with SW620 xenografts
Experimental: as §1
Supplementary file 13578_2022_944_MOESM1_ESM.docx: Additional file 1: Figure S1. Screening of ATG4B inhibitors based on the approved drugs library by FRET assay. […] (D) Candidate compound number and name correspondence table, and IC50 calculation of nine commercially available compounds for ATG4B by FRET assay. Figure S2. […] Figure S3. […] Figure S5. […] Figure S6.

[5] = tested on: HCT116 cells; assay: Long-lived protein degradation assay; type: cell-based; settings: 10 μM Ebselen, 2 μM Torin 1, 12 h
Experimental: Long-lived protein degradation assay was performed referring to the reported protocol. In brief, HCT116 cells were seeded in 6-well plates and cultured overnight, and then incubated with L-methionine-free DMEM (Thermo Fisher Scientific, 21,013,024) supplemented with 10% dialyzed FBS (Biological Industries, 2,148,391) for 30 min at 37℃ for depleting the methionine reserve. Subsequently, the cells were incubated with medium containing 50 μM AHA (MCE, HY-140346A) for 18 h to label AHA on proteins. After 2 h incubation with 10 × L-methionine to chase out the short-lived AHA-labeled proteins, cells were treated with compounds as indicated in regular medium for 12 h. Then the cells were harvested, fixed and permeabilized sequentially until they were incubated in the click reaction master mix (50 μM TAMRA alkyne [AAT Bioquest, AAT-487], 1 mM TCEP [MCE, HY-W011500], 100 μM TBTA [GLPBIO, GC45003], 1 mM CuSO4 [Sangon Biotech, C3008] in PBS) in the dark for 2 h. Finally, cells were washed and suspended in 500 μl PBS and analyzed by flow cytometry (BECKMAN, CytoFLEX S).

**Q.** What does the source list for O=c1c2ccccc2[se]n1-c1ccccc1 [Ebselen]?
**A.** ATG4B oligomerization [1]: oligomerization occurred; Ki67 positivity in tumors ([2]; Ebselen 10 mg/kg, immunohistochemistry): significant reduction of Ki67 positivity; autophagy flux in tumors (LC3-II, p62) ([2]; compared with the vehicle group): significantly inhibited; apoptosis of tumors ([2]; western blot): inhibited the apoptosis of tumors in a dose-dependent manner; effect on viability of ATG4B deficient cells ([3]; Fig. 6F): almost no effect; IC50 ([3]; Homo sapiens, HCT-116, CCK-8, 96 h): 28.1 µM; tumor suppression [4]: slightly weaker potential for tumor suppression; autophagic long-lived protein degradation induced by Torin 1 [5]: significantly inhibited
